This note sets out measurements from US10124065B2, “Lipids and lipid compositions for the delivery of active agents” (Novartis AG, priority 2013, dated 2018).

A short description of data set [1]: pKa measurement of cationic lipid (TNS fluorescence). Particulars: pKa of the cationic lipid of formula (I), Table 4. Type of data set: physicochemical. How it is done:
Unless indicated otherwise, all pKa's referred to herein were measured at standard temperature and pressure. Also, unless otherwise indicated, all references to pKa are references to pKa measured using the following technique. 2 mM solution of lipid in ethanol was prepared by weighing the lipid and then dissolving it in ethanol. 0.3 mM solution of fluorescent probe TNS in ethanol:methanol 9:1 was prepared by first making 3 mM solution of TNS in methanol and then diluting to 0.3 mM with ethanol. An aqueous buffer containing 200 mM sodium phosphate dibasic and 100 mM citric acid was prepared. […] Using the Hamilton Microlab Star high throughput liquid handler and Hamilton run control software Software, 7.5 uL of probe/lipid mix were added to 242.5 uL of buffer in a 1 mL 96 well plate (model NUNC 260252, […] Nunc International). This was done with all twelve buffers. After mixing in 1 mL 96 well plate, 100 uL of each probe/lipid/buffer mixture was transferred to a 250 uL black with clear bottom 96 well plate (model COSTAR 3904, Corning). The fluorescence measurements are carried out on the SpectraMax M5 spectrophotometer using software SoftMax pro 5.2 and following parameters: After the measurement, the background fluorescence value of an empty well on the 96 well plate was subtracted from each probe/lipid/buffer mixture. The fluorescence intensity values were then normalized to the value at lowest pH. The normalized fluorescence intensity vs. pH chart was then plotted in the Microsoft Excel software. The twelve points were connected with a smooth line. The point on the line at which the normalized fluorescence intensity was equal to 0.5 was found. […] The pKa determined using this method is precise to about 0.1 pKa units.

Data set [2] relates to plasma Factor VII enzyme activity. Kind of data set: Mouse Factor VII dosing / Factor VII Activity Assay. Format: in vivo. Particulars: percent knock down of plasma Factor VII activity, CD-1 mice, 48 h; for KD FVII 0.03 mg/kg: single IV dose 0.03 mg/kg; for KD FVII 0.3 mg/kg: single IV dose 0.3 mg/kg. How it is done: Female CD-1 mice were received from Harlan Labs and maintained on standard lab chow and water ad libitum. The animals weighed approximately 25 grams at time of dosing. Formulated Factor VII siRNA was administered as a single dose intravenously via the lateral tail vein. Approximately 48 hours after injection, the mice were euthanized by CO2 inhalation followed by exsanguination through the vena cava. […] Plasma collected from injected mice was assayed for Factor VII enzyme activity using the Biophen FVII kit from Hyphen Biomedical (catalog number 221304). An assay standard curve was prepared using pooled plasma aliquots from the vehicle control animals. All samples were diluted to fall within the linear range of the standard curve and Factor VII activity relative to control plasma was reported. Lipid nanoparticles comprising lipid compounds of formula (I) and the FVII siRNA duplex sequence listed above were tested in the Factor VII Activity Assay. The results of this assay are given in Table 4 below as a percent knock down of plasma Factor VII enzyme activity at a dose of 0.3 mg/kg and 0.03 mg/kg.

Data set [3] is described as follows: Particle size of lipid nanoparticle (dynamic light scattering, Malvern Zetasizer). Type of data set: physicochemical. To be noted: FVII siRNA LNP; Chol/DSPC/PEG-DMG, molar ratio 45/44/9/2; Z-average. From the text:
The lipid nanoparticles have a size of about 1 to about 2,500 nm, about 1 to about 1,500 nm, about 1 to about 1,000 nm, in a sub-embodiment about 50 to about 600 nm, in a sub-embodiment about 50 to about 400 nm, in a sub-embodiment about 50 to about 250 nm, and in a sub-embodiment about 50 to about 150 nm. Unless indicated otherwise, all sizes referred to herein are the average sizes (diameters) of the fully formed nanoparticle, as measured by dynamic light scattering on a Malvern Zetasizer. The nanoparticle sample is diluted in phosphate buffered saline (PBS) so that the count rate is approximately 200-400 kcts. The data is presented as a weighted average of the intensity measure. Unless indicated otherwise, all particle size measurements referred to in Tables 4 and 5 are the Z-average particle size of the fully formed nanoparticle, as measured by dynamic light scattering on a Malvern Zetasizer. The nanoparticle sample was diluted in phosphate buffered saline (PBS) so that the count rate is approximately 200-400 kcts.

Data set [4] is described as follows: Polydispersity index (PDI) of lipid nanoparticle (dynamic light scattering). To be noted: FVII siRNA LNP; Chol/DSPC/PEG-DMG, molar ratio 45/44/9/2. Type of data set: physicochemical. The method, then:
Unless indicated otherwise, all PDIs referred to herein are the PDI of the fully formed nanoparticle, as measured by dynamic light scattering on a Malvern Zetasizer. The nanoparticle sample was diluted in phosphate buffered saline (PBS) so that the count rate was approximately 200-400 kcts. The data is presented in Tables 4 and 5 as a weighted average of the intensity measure.

The mark [5] stands for this setting: LNP Chol/DSPC/PEG-DMG 45/44/9/2.

Each structure is given as a SMILES string. Like-named read-outs stand apart in the source and are kept apart here.

As for `CCCCCCCC(CCCCCCC)CCCC(=O)OCCCCOc1cc(CN(C)C)cc(OCCCCOC(=O)CCCC(CCCCCCC)CCCCCCC)c1` [Ex. 115, ((5-((dimethylamino)methyl)-1,3-phenylene)bis(oxy))bis(butane-4,1-diyl)bis(5-heptyldodecanoate)], in data set [1] (probe TNS, read-out: pKa), the pKa was determined as 5.87. The “KD FVII 0.03 mg/kg” value in data set [2] (setting [5]) was determined as 78%. The corresponding values for `CCCCC/C=C\C/C=C\CCCCCCCC(=O)OCCCCOc1cc(CCCN2CCCCC2)cc(OCCCCOC(=O)CCCCCCC/C=C\C/C=C\CCCCC)c1` [Ex. 120, (9Z,9′Z,12Z,12′Z)-((5-(3-(piperidin-1-yl)propyl)-1,3-phenylene)bis(oxy))bis(butane-4,1-diyl)bis(octadeca-9,12-dienoate)] are 6.31 and 83.7%. In turn, `CCCCCCCC(=O)OCCCCCCCCCC(=O)OCc1cc(COC(=O)CCCCCCCCCOC(=O)CCCCCCC)cc(CN(C)C)c1` [Example 86, (5-((dimethylamino)methyl)-1,3-phenylene)bis(methylene)bis(10-(octanoyloxy)decanoate)] came in with a pKa in data set [1] (listed as Ex. 86) of 5.81. In data set [2] (LNP Chol/DSPC/S010 45/44/9/2), the “KD FVII 0.03 mg/kg” value is listed as 0%. Moreover, the “KD FVII 0.3 mg/kg” value in data set [2] (setting [5]) is listed as 55.3%. Consider `CCCCCCC(CCCCCC)CCCCCC(=O)OCCCCOc1cc(CN(C)C)cc(OCCCCOC(=O)CCCCCC(CCCCCC)CCCCCC)c1` [Ex. 113, ((5-((dimethylamino)methyl)-1,3-phenylene)bis(oxy))bis(butane-4,1-diyl)bis(7-hexyltridecanoate)], for which the pKa in data set [1] (probe TNS, read-out: pKa) amounted to 6.03. In addition, the “KD FVII 0.03 mg/kg” value in data set [2] (setting [5]) was determined as 57.6%. Turning to `CCCCCC(CCCCC)CCCCCCCC(=O)OCCCCOc1cc(CN(C)C)cc(OCCCCOC(=O)CCCCCCCC(CCCCC)CCCCC)c1` [Ex. 114, ((5-((dimethylamino)methyl)-1,3-phenylene)bis(oxy))bis(butane-4,1-diyl)bis(9-pentyltetradecanoate)], the pKa in data set [1] (probe TNS, read-out: pKa) is 5.97. In data set [2] (setting [5]), the “KD FVII 0.03 mg/kg” value is recorded as 44%.

As for `CCCCCCCC(=O)OCC(COC(=O)CCCCCCC)OCCCCOc1cc(CN(C)C)cc(OCCCCOC(COC(=O)CCCCCCC)COC(=O)CCCCCCC)c1` [Ex. 125, ((((5-((dimethylamino)methyl)-1,3-phenylene)bis(oxy))bis(butane-4,1-diyl))bis(oxy))bis(propane-3,2,1-triyl)tetraoctanoate], the pKa in data set [1] (probe TNS, read-out: pKa) amounted to 5.75. Turning to `CCCCC/C=C\C/C=C\CCCCCCCC(=O)OCCCCOc1cc(CCCN2CCOCC2)cc(OCCCCOC(=O)CCCCCCC/C=C\C/C=C\CCCCC)c1` [Ex. 122, (9Z,9′Z,12Z,12′Z)-((5-(3-morpholinopropyl)-1,3-phenylene)bis(oxy))bis(butane-4,1-diyl)bis(octadeca-9,12-dienoate)], in data set [1] (probe TNS, read-out: pKa), the pKa was found to be 5.06. For `CCCCCCCCCC(=O)OCCCCCCCCOc1cc(COC(=O)CCCN(C)C)cc(OCCCCCCCCOC(=O)CCCCCCCCC)c1` [Ex. 124, ((5-(((4-(dimethylamino)butanoyl)oxy)methyl)-1,3-phenylene)bis(oxy))bis(octane-8,1-diyl)bis(decanoate)], the pKa in data set [1] (probe TNS, read-out: pKa) is 7.11. With `CCCCCCCCC(CCCCCCCC)CC(=O)OCCCOc1cc(CN(C)C)cc(OCCCOC(=O)CC(CCCCCCCC)CCCCCCCC)c1` [Example 56, ((5-((dimethylamino)methyl)-1,3-phenylene)bis(oxy))bis(propane-3,1-diyl)bis(3-octylundecanoate)], in data set [1] (listed as Ex. 56), the pKa was found to be 5.71. Moreover, in data set [2] (setting [5]), the “KD FVII 0.3 mg/kg” value came out at 71.0%.

Regarding `CCCCC/C=C\C/C=C\CCCCCCCC(=O)OCCOCCOc1cc(CN(CC)CC)cc(OCCOCCOC(=O)CCCCCCC/C=C\C/C=C\CCCCC)c1` [Example 58, (9Z,9′Z,12Z,12′Z)-((((5-((diethylamino)methyl)-1,3-phenylene)bis(oxy))bis(ethane-2,1-diyl))bis(oxy))bis(ethane-2,1-diyl)bis(octadeca-9,12-dienoate)], the pKa in data set [1] (listed as Ex. 58) was found to be 6.02. In data set [2] (LNP Chol/DSPC/S010 45/44/9/2), the “KD FVII 0.03 mg/kg” value stood at 15.25%. Moreover, the “KD FVII 0.3 mg/kg” value in data set [2] (setting [5]) was found to be 78.1%. Compound `CCCCCCCCCCCC(=O)OCCCCCCCCOc1cc(CN(C)C)cc(OCCCCCCCCOC(=O)CCCCCCCCCCC)c1` [Example 53, ((5-((dimethylamino)methyl)-1,3-phenylene)bis(oxy))bis(octane-8,1-diyl)didodecanoate] returned a pKa in data set [1] (listed as Ex. 53) of 5.84. Moreover, the “KD FVII 0.3 mg/kg” value in data set [2] (setting [5]) turned out to be 96.6%.

Take `CCCCCCCCC(CCCCCCCC)CC(=O)OCCCCOc1cc(CN(C)C)cc(OCCCCOC(=O)CC(CCCCCCCC)CCCCCCCC)c1` [Ex. 116, ((5-((dimethylamino)methyl)-1,3-phenylene)bis(oxy))bis(butane-4,1-diyl)bis(3-octylundecanoate)]: the pKa in data set [1] (probe TNS, read-out: pKa) amounted to 5.67. The “KD FVII 0.03 mg/kg” value in data set [2] (setting [5]) was found to be 29%.

Turning to `CCCCCCCCOC(CCCOc1cc(CN(C)C)cc(OCCCC(OCCCCCCCC)OCCCCCCCC)c1)OCCCCCCCC` [Ex. 126, 1-(3,5-bis(4,4-bis(octyloxy)butoxy)phenyl)-N,N-dimethylmethanamine], in data set [1] (probe TNS, read-out: pKa), the pKa was determined as 5.54. Further, in data set [3], the “Size (nm)” value was 95.2 nm. Further, the PDI in data set [4] was 0.075. The “KD FVII 0.03 mg/kg” value in data set [2] (setting [5]) stood at 31.7%.

Regarding `CCCCCCCC(CCCCCCC)CCCC(=O)OCc1cc(COC(=O)CCCC(CCCCCCC)CCCCCCC)cc(CN(C)C)c1` [Ex. 117, (5-((dimethylamino)methyl)-1,3-phenylene)bis(methylene)bis(5-heptyldodecanoate)], the pKa in data set [1] (probe TNS, read-out: pKa) is 5.46. Consider `CCCCC/C=C\CC=CCCCCCCCC(=O)OCCCCOc1cc(CN(C)C)cc(OCCCCOC(=O)CCCCCCCC=CC/C=C\CCCCC)c1C` [Example 51, (9Z,9′Z,12Z,12′Z)-((5-((dimethylamino)methyl)-2-methyl-1,3-phenylene)bis(oxy))bis(butane-4,1-diyl)bis(octadeca-9,12-dienoate)], for which, in data set [1] (probe TNS, read-out: pKa), the pKa stood at 5.91. For the compound `CCCCCC(CCCCC)CCCCCCCC(=O)OCc1cc(COC(=O)CCCCCCCC(CCCCC)CCCCC)cc(CN(C)C)c1` [Ex. 119, (5-((dimethylamino)methyl)-1,3-phenylene)bis(methylene)bis(9-pentyltetradecanoate)], the pKa in data set [1] (probe TNS, read-out: pKa) amounted to 5.84. Moreover, the “KD FVII 0.03 mg/kg” value in data set [2] (setting [5]) is reported as 7.8%. The corresponding values for `CCCCCCC(CCCCCC)CCCCCC(=O)OCc1cc(COC(=O)CCCCCC(CCCCCC)CCCCCC)cc(CN(C)C)c1` [Ex. 118, (5-((dimethylamino)methyl)-1,3-phenylene)bis(methylene)bis(7-hexyltridecanoate)] are 5.67 and 46.3%.

In the case of `CCCCC/C=C\C/C=C\CCCCCCCC(=O)OCc1cc(COC(=O)CCCCCCC/C=C\C/C=C\CCCCC)cc(CN(C)C)c1` [Example 33, (9Z,9′Z,12Z,12′Z)-(5-((dimethylamino)methyl)-1,3-phenylene)bis(methylene)bis(octadeca-9,12-dienoate)], the pKa in data set [1] (listed as Ex. 33) turned out to be 5.75. The “KD FVII 0.3 mg/kg” value in data set [2] (setting [5]) turned out to be 90.4%.

As a reminder, the pKa is the negative logarithm of the acid dissociation constant.
